In the supplement of paper PMC10627819:

Legend:
B. subtilis 168 [1] = test: fitness (endpoint OD595 vs no drug) (fraction); higher = more growth
Method in brief: (§1)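 Background-subtracted growth curves were the basis for fitness, taken as the optical density at entry into stationary phase over the robust mean of no-drug control wells. A cap of 1 was applied. The curves came from OD595 readings every 30 min for 14 h at 37 °C, in 384-well plates seeded at OD595 0.01 with 30 µl, or 55 µl for S. pneumoniae.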

S. aureus DSM 20231 [2] = test: as above
Method in brief: as §1

S. aureus Newman [3] = test: as above
Method in brief: as §1

S. pneumoniae D39V [4] = test: as above
Method in brief: as §1

B. subtilis 168 [5] = test: Bliss interaction score (quartile over a dose matrix) (fitness difference); higher = more antagonism (negative = synergy)
Method in brief: (§2)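 Fitness was derived from optical density at entry into stationary phase, divided by the robust mean of the no-drug wells on the same plate. That reading was taken as OD595, and the ratio was capped at 1. Single-drug fitness was inferred from the combination data. The Bliss score, observed fitness minus the expected product of single-drug fitness, was summarised as quartiles over technical, biological and donor/recipient replicates.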

S. aureus DSM 20231 [6] = test: as above
Method in brief: as §2

S. aureus Newman [7] = test: as above
Method in brief: as §2

S. pneumoniae D39V [8] = test: as above
Method in brief: as §2
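Wherever Bliss interaction score (quartile over a dose matrix) is given: first quartile when negative (synergy) and third quartile when positive (antagonism).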

CO/N=C(\C(=O)N[C@@H]1C(=O)N2C(C(=O)O)=C(COC(C)=O)CS[C@H]12)c1csc(N)n1 [Cefotaxime] + O=C(O[C@@H]1Cc2c(O)cc(O)cc2O[C@@H]1c1cc(O)c(O)c(O)c1)c1cc(O)c(O)c(O)c1 [EGCG]
fitness, one replicate
Details	first compound 0.00775 µg/mL	first compound 0.0155 µg/mL	first compound 0.031 µg/mL	first compound 0.039 µg/mL	first compound 0.0625 µg/mL	first compound 0.125 µg/mL	first compound 0.25 µg/mL	first compound 0.312 µg/mL
B. subtilis 168 [1], partner 6.25 µg/mL	0.847	0.723	0.588	–	0.532	0.462	0.403	–
B. subtilis 168 [1], partner 12.5 µg/mL	0.466	0.341	0.284	–	0.59	0.521	0.475	–
B. subtilis 168 [1], partner 25 µg/mL	0.192	0.129	0.133	–	0.547	0.484	0.32	–
S. aureus Newman [3], partner 12.5 µg/mL	–	–	–	0.751	–	–	–	0.317
S. aureus Newman [3], partner 25 µg/mL	–	–	–	0.786	–	–	–	0.268
S. aureus Newman [3], partner 50 µg/mL	–	–	–	0.726	–	–	–	0.14

fitness
Details	partner 6.25 µg/mL	partner 12.5 µg/mL	partner 25 µg/mL	partner 50 µg/mL
B. subtilis 168 [1], first compound 0.5 µg/mL	0.265	0.293	0.103	–
B. subtilis 168 [1], first compound 1 µg/mL	0.119	0.166	0.0631	–
B. subtilis 168 [1], first compound 2 µg/mL	0.0879	0.142	0.0481	–
S. aureus DSM 20231 [2], first compound 0.039 µg/mL	–	0.696	0.702	0.651
S. aureus DSM 20231 [2], first compound 0.078 µg/mL	–	0.655	0.704	0.625
S. aureus DSM 20231 [2], first compound 0.156 µg/mL	–	0.685	0.697	0.746
S. aureus DSM 20231 [2], first compound 0.312 µg/mL	–	0.736	0.622	–
S. aureus Newman [3], first compound 0.078 µg/mL	–	0.594	0.615	0.573
S. aureus Newman [3], first compound 0.156 µg/mL	–	0.574	0.391	0.564
S. aureus Newman [3], first compound 0.625 µg/mL	–	0.198	0.071	0.0397
S. aureus Newman [3], first compound 1.25 µg/mL	–	0.0285	0.0144	0.0286
S. aureus Newman [3], first compound 2.5 µg/mL	–	0.0123	0.0423	0.0268
S. pneumoniae D39V [4], first compound 0.0018 µg/mL	–	0.977	0.978	0.939
S. pneumoniae D39V [4], first compound 0.0035 µg/mL	–	0.989	≥ 1	0.955
S. pneumoniae D39V [4], first compound 0.007 µg/mL	–	0.889	0.914	0.883

Details	Bliss interaction score
B. subtilis 168 [5]	0.112
S. aureus DSM 20231 [6]	0.0466
S. aureus Newman [7]	0.0329
S. pneumoniae D39V [8]	0.07

COc1cccc2c1C(=O)c1c(O)c3c(c(O)c1C2=O)C[C@@](O)(C(=O)CO)C[C@@H]3O[C@H]1C[C@H](N)[C@H](O)[C@H](C)O1 [Doxorubicin] + CN(N=O)C(=O)N[C@@H](C=O)[C@@H](O)[C@H](O)[C@H](O)CO [Streptozotocin]
fitness
Details	first compound 0.25 µg/mL	first compound 0.5 µg/mL	first compound 0.625 µg/mL	first compound 1 µg/mL	first compound 1.25 µg/mL	first compound 2.5 µg/mL
B. subtilis 168 [1], partner 0.15 µg/mL	–	–	0.961	–	0.957	0.663
B. subtilis 168 [1], partner 0.3 µg/mL	–	–	≥ 1	–	0.956	0.582
B. subtilis 168 [1], partner 0.6 µg/mL	–	–	0.993	–	0.939	0.627
S. aureus DSM 20231 [2], partner 0.15 µg/mL	–	–	0.762	–	0.828	0.787
S. aureus DSM 20231 [2], partner 0.3 µg/mL	–	–	0.741	–	0.726	0.746
S. aureus DSM 20231 [2], partner 0.6 µg/mL	–	–	0.631	–	0.651	0.595
S. aureus Newman [3], partner 0.15 µg/mL	–	–	0.702	–	0.7	0.709
S. aureus Newman [3], partner 0.3 µg/mL	–	–	0.656	–	0.68	0.646
S. aureus Newman [3], partner 0.6 µg/mL	–	–	0.607	–	0.604	0.541
S. pneumoniae D39V [4], partner 1.2 µg/mL	0.919	0.929	–	0.852	–	–
S. pneumoniae D39V [4], partner 2.4 µg/mL	0.898	0.919	–	0.866	–	–
S. pneumoniae D39V [4], partner 4.8 µg/mL	0.966	0.972	–	0.91	–	–

Details	Bliss interaction score
B. subtilis 168 [5]	0.0771
S. aureus DSM 20231 [6]	-0.0251
S. aureus Newman [7]	0.11
S. pneumoniae D39V [8]	0.0618
